Test results from patent US20190002942A1, “ANTIBIOTIC FIIRV 104/18 COMPLEX AND THE ISOLATED INDIVIDUAL FACTORS THEREOF” (Fondazione Istituto Insubrico di Ricerca per la Vita, priority 2015, published 2019).
Values after ≈ are worked out from the molar mass of the structure shown. Read-outs that look alike come from different tables or passages of the source.

How the values were obtained:
[1] = test system: L560 E. faecalis VanA; experiment: MIC, broth microdilution (CLSI); type: cell-based, Enterococcus faecalis
Method: (§1) Inocula are: 2-5×10^5 CFU/mL for Gram positive and Gram negative bacteria; 10^4 CFU/mL for Candida albicans.
(§2) The effect of 30% bovine serum is determined under the same experimental conditions.
(§3) Cultures are incubated at 35° C. in air. After 18-24 hours visual readings are performed and MICs determined. The MIC (Minimal Inhibitory Concentration) is defined as the lower concentration of antibiotic at which there is no visible growth. The strains used are clinical isolates or strains from American Type Culture Collection (ATCC).

[2] = test system: L819 S. aureus Smith ATCC19636; experiment: MIC, broth microdilution (CLSI); type: cell-based, Staphylococcus aureus
Method: as §1, §2, §3

[3] = test system: Staphylococcus aureus Smith ATCC 19636; experiment: Murine Staphylococcus aureus infection model; type: in vivo, ICR mice
Method: Female ICR mice (Harlan, Italy) weighing 21-24 g are infected intraperitoneally (ip) with 5×10^4 cells of Staphylococcus aureus Smith ATCC 19636 in 0.5 mL of 5% gastric mucine. Antibiotic FIIRV 104/18 factor F795 is administered intravenously (iv) within 10-15 min after infection. […] In: Statistical Methods in Biological Assay, 524-530, (1952) Charles Griffin &Co., Ltd., London].

[4] = test system: L569 E. faecium VanA; experiment: MIC, broth microdilution (CLSI); type: cell-based, Enterococcus faecium
Method: as §1, §2, §3

[5] = test system: L1400 S. aureus MRSA; experiment: MIC, broth microdilution (CLSI); type: cell-based; details: Staphylococcus aureus
Method: as §1, §2, §3

[6] = test system: L49 S. pyogenes C203; experiment: MIC, broth microdilution (CLSI); type: cell-based; details: Streptococcus pyogenes
Method: as §1, §2, §3

[7] = test system: L1730 S. haemolyticus; experiment: MIC, broth microdilution (CLSI); type: cell-based; details: Staphylococcus haemolyticus
Method: as §1, §2, §3

[8] = test system: L3294 M. catarrhalis; experiment: MIC, broth microdilution (CLSI); type: cell-based; details: Moraxella catarrhalis
Method: as §1, §2, §3

[9] = test system: L47 E. coli, SKF 12140; experiment: MIC, broth microdilution (CLSI); type: cell-based; details: Escherichia coli
Method: as §1, §2, §3

[10] = test system: L559 E. faecalis; experiment: MIC, broth microdilution (CLSI); type: cell-based; details: Enterococcus faecalis
Method: as §1, §2, §3

[11] = test system: L568 E. faecium; experiment: MIC, broth microdilution (CLSI); type: cell-based; details: Enterococcus faecium
Method: as §1, §2, §3

[12] = test system: L100 S. aureus ATCC 6538; experiment: MIC, broth microdilution (CLSI); type: cell-based; details: Staphylococcus aureus, ATCC6538
Method: as §1, §2, §3

[13] = test system: L44 S. pneumoniae; experiment: MIC, broth microdilution (CLSI); type: cell-based; details: Streptococcus pneumoniae
Method: as §1, §2, §3

[14] = test system: L1577 S. epidermidis; experiment: MIC, broth microdilution (CLSI); type: cell-based; details: Staphylococcus epidermidis
Method: as §1, §2, §3

[15] = test system: L1729 S. haemolyticus MDR; experiment: MIC, broth microdilution (CLSI); type: cell-based; details: Staphylococcus haemolyticus
Method: as §1, §2, §3

[16] = test system: Gram-positive susceptible, resistant and multi-resistant pathogenic bacteria; experiment: Growth inhibition of Gram-positive bacteria (summary); type: cell-based; details: Gram positive bacteria: Staphylococci incl. MRSA and MR coagulase-negative, Streptococci, Enterococci incl. VanA
Method: (§4) Antimicrobial activity of the antibiotic FIIRV 104/18 complex is determined by the broth microdilution method according to the procedures published by the Clinical and Laboratory Standards Institute (CLSI), formerly the National Committee for Clinical Laboratory Standards (NCCLS) (document M07-A9). Inocula are: 2-5×10^5 CFU/mL for Gram positive and Gram negative bacteria; 10^4 CFU/mL for Candida albicans.
(§5) The media used are: cation adjusted Mueller Hinton broth (CAMHB) for Staphylococci, Enterococci, Moraxella catarrhalis, Escherichia coli; Todd Hewitt broth (THB) for Streptococci; RPMI 1640 Medium for C. albicans. The effect of 30% bovine serum is determined under the same experimental conditions.
as §3, with “(ATCC). Individual factors of antibiotic FIIRV 104/18 are dissolved in DMSO to obtain a 1000 μg/mL stock solution, and subsequently diluted in water to obtain working solution.” for “(ATCC).”

[17] = test system: L145 C. albicans; experiment: MIC, broth microdilution (CLSI); type: cell-based, Candida albicans; details: Candida albicans; L145 C. albicans; RPMI; inoculum 10^4 CFU/mL; read-out: MIC
Method: as §4, §5
as §3, with “(ATCC). Individual factors of antibiotic FIIRV 104/18 are dissolved in DMSO to obtain a 1000 μg/mL stock solution, and subsequently diluted in water to obtain working solution.” for “(ATCC).”

[18] = test system: L3030 A. baumannii; experiment: MIC, broth microdilution (CLSI); type: cell-based; details: Acinetobacter baumannii; L3030 A. baumannii; read-out: MIC
Method: as §1, §2, §3

[19] = test system: L2048 B. cenocepacia; experiment: MIC, broth microdilution (CLSI); type: cell-based; details: Burkholderia cenocepacia; L2048 B. cenocepacia; read-out: MIC
Method: as §4, §5
as §3, with “(ATCC). Individual factors of antibiotic FIIRV 104/18 are dissolved in DMSO to obtain a 1000 μg/mL stock solution, and subsequently diluted in water to obtain working solution.” for “(ATCC).”

SMILES: CN[C@H](CC(C)C)C(=O)N[C@H]1C(=O)N[C@@H](CC(N)=O)C(=O)N[C@H]2C(=O)N[C@H]3C(=O)N[C@H](C(=O)N[C@H](C(=O)O)c4cc(O)cc(O)c4-c4cc3ccc4O)[C@H](O)c3ccc(c(Cl)c3)Oc3cc2cc(c3O[C@@H]2O[C@H](CO)[C@@H](O)[C@H](O)[C@H]2O[C@H]2C[C@](C)(N)[C@H](O)[C@H](C)O2)Oc2ccc(cc2Cl)[C@H]1O [V, vancomycin, reference compound]
- MIC ([1]; Enterococcus faecalis): > 128 µg/mL
- MIC ([1]; L560 E. faecalis VanA, +30% SB (bovine serum)): >128 µg/mL
- MIC ([2]; L819 S. aureus Smith, +30% SB (bovine serum)): 1 µg/mL (≈ 0.69 µM)
- MIC ([2]; Staphylococcus aureus, ATCC19636): 1 µg/mL (≈ 0.69 µM)
- ED50 ([3]; ATCC19636, read-out: ED50 (50% effective dose)): 0.93 mg/kg
- MIC ([4]; Enterococcus faecium): > 128 µg/mL
- MIC ([4]; L569 E. faecium VanA, +30% SB (bovine serum)): >128 µg/mL
- MIC ([5]; MRSA): 1 µg/mL (≈ 0.69 µM)
- MIC [6]: 0.5 µg/mL (≈ 0.345 µM)
- MIC [7]: 2 µg/mL (≈ 1.38 µM)
- MIC [8]: > 2 µg/mL
- MIC [9]: > 2 µg/mL
- MIC [10]: 1 µg/mL (≈ 0.69 µM)
- MIC [11]: 2 µg/mL (≈ 1.38 µM)
- MIC [12]: 1 µg/mL (≈ 0.69 µM)
- MIC [13]: 0.5 µg/mL (≈ 0.345 µM)
- MIC [14]: 2 µg/mL (≈ 1.38 µM)
- MIC [15]: 2 µg/mL (≈ 1.38 µM)

SMILES: COC(=O)c1c(C)cc2c(c1O)[C@]1(O)C(=O)c3cc4c(c(O)c3C(=O)[C@]1(OC)[C@H](O)C2)C(=O)C=C(N[C@H]1O[C@@H](C)[C@H](O[C@@H]2CCC(=O)[C@H](C)O2)[C@@H](O)[C@H]1OC)C4=O [F795, (6R,6aS,14aR)-methyl 11-[(2S,3R,4R,5R,6S)-4-hydroxy-3-methoxy-6-methyl-5-{[(2S,6S)-6-methyl-5-oxotetrahydro-2H-pyran-2-yl]oxy}tetrahydro-2H-pyran-2-ylamino]-1,6,8,14a-tetrahydroxy-6a-methoxy-3-methyl-7,9,12,14-tetraoxo-5,6,6a,7,9,12,14,14a-octahydrobenzo[a]tetracene-2-carboxylate]
- MIC ([1]; Enterococcus faecalis, L560 E. faecalis VanA, +30% SB (bovine serum), read-out: MIC): 0.5 µg/mL (≈ 0.628 µM)
- MIC ([1]; Enterococcus faecalis, L560 E. faecalis VanA, CAMHB, read-out: MIC): 0.125 µg/mL (≈ 0.157 µM)
- MIC ([2]; Staphylococcus aureus, ATCC19636, L819 S. aureus Smith ATCC19636, CAMHB, read-out: MIC): 0.002 µg/mL (≈ 0.00251 µM)
- MIC ([2]; Staphylococcus aureus, ATCC19636, L819 S. aureus Smith, +30% SB (bovine serum), read-out: MIC): 0.125 µg/mL (≈ 0.157 µM)
- antibacterial activity (in words) [16]: very high antibacterial activity
- ED50 ([3]; ATCC19636, read-out: ED50 (50% effective dose), mice infected ip with S. aureus Smith ATCC 19636, iv within 10-15 min after infection, Spearman-Karber): 0.8 mg/kg
- MIC [17]: > 128 µg/mL
- MIC ([4]; Enterococcus faecium, L569 E. faecium VanA, +30% SB (bovine serum), read-out: MIC): 2 µg/mL (≈ 2.51 µM)
- MIC ([4]; Enterococcus faecium, L569 E. faecium VanA, CAMHB, read-out: MIC): 0.25 µg/mL (≈ 0.314 µM)
- MIC ([5]; L1400 S. aureus MRSA, CAMHB, read-out: MIC): 0.015 µg/mL (≈ 0.0189 µM)
- MIC ([6]; L49 S. pyogenes C203, THB, read-out: MIC): 0.015 µg/mL (≈ 0.0189 µM)
- MIC ([7]; L1730 S. haemolyticus, CAMHB, read-out: MIC): 0.015 µg/mL (≈ 0.0189 µM)
- MIC ([8]; L3294 M. catarrhalis, CAMHB, read-out: MIC): 0.125 µg/mL (≈ 0.157 µM)
- MIC ([9]; L47 E. coli, SKF 12140, CAMHB, read-out: MIC): > 128 µg/mL
- MIC ([10]; L559 E. faecalis, CAMHB, read-out: MIC): 0.25 µg/mL (≈ 0.314 µM)
- MIC ([11]; L568 E. faecium, CAMHB, read-out: MIC): 0.25 µg/mL (≈ 0.314 µM)
- MIC [18]: 16 µg/mL (≈ 20.1 µM)
- MIC ([12]; L100 S. aureus ATCC 6538, CAMHB, read-out: MIC): 0.008 µg/mL (≈ 0.0101 µM)
- MIC ([13]; L44 S. pneumoniae, THB, read-out: MIC): 0.015 µg/mL (≈ 0.0189 µM)
- MIC ([14]; L1577 S. epidermidis, CAMHB, read-out: MIC): 0.015 µg/mL (≈ 0.0189 µM)
- MIC ([15]; L1729 S. haemolyticus MDR, CAMHB, read-out: MIC): 0.015 µg/mL (≈ 0.0189 µM)
- MIC [19]: 32 µg/mL (≈ 40.2 µM)
